Experimental data reported in patent publication US10011568B2, “Cyclohexyl pyridine derivative” (priority 2014, dated 2018).

Tests used:
[1] = Measurement of drug concentrations in the brain after foot-tapping; type: in vivo; conditions: male gerbil, 0.1 mg/kg iv, after foot-tapping was finished
Experimental: (§1) A male gerbil (Japan SLC) was anesthetized with isoflurane, and 0.1 mg/kg of a test compound was administered from the jugular vein. After four hours. GR73632 (5 pmol/5 μl saline), which is an NK1 receptor agonist, was administered into the cerebral ventricle at the part 1 mm lateral to and 4.5 mm below the bregma in the head, under anesthesia with isoflurane. After the administration, the gerbil was moved to an observation cage, and the foot-tapping period during 30 minutes after the recovery of the righting reflex was measured. The foot-tapping inhibition rate (%) of each test compound was calculated by the following equation. Foot-tapping inhibition rate (%)−{1−(Fool-tapping period when test compound was administered)/(Foot-tapping period when solvent was administered)}×100 (2) Measurement of Drug Concentrations
After foot-tapping was finished, laparotomy was performed immediately under anesthesia with ether, and a blood sample was taken from the abdominal vena cava. At the same lime, the brain was extracted. Through a quantitative analysis using liquid chromatography-mass spectrometry (LC/MS), the concentrations of the test compound in the plasma and the brain were measured.
(§2) In the table, Ex. No. means the Example number. Inhibition (%) is the loot-tapping inhibition rate, and Cone. (nM) is the drug concentration in the brain.

[2] = target: NK1 receptor (Meriones unguiculatus (Mongolian jird) (Gerbillus unguiculatus), UniProt Q5DUB1); assay: Effect on foot-tapping induced by NK1 receptor agonist GR73632; type: in vivo; conditions: male gerbil, 0.1 mg/kg iv, GR73632 after four hours
Sequence of NK1 receptor (Q5DUB1 whole entry): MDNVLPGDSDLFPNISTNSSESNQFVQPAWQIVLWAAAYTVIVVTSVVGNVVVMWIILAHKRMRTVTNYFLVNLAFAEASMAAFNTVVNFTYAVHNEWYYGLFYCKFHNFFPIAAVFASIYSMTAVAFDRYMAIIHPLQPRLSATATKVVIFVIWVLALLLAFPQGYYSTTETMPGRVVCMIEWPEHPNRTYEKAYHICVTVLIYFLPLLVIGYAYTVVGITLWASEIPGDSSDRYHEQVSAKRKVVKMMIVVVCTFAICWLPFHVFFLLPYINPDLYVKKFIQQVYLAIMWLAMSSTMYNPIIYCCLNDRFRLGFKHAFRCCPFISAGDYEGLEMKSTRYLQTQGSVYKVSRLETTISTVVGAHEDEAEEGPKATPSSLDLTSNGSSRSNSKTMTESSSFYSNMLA
Experimental: (1) Effect on Foot-Tapping
The test compound solution was prepared by dissolving the test compound in a vehicle (a mixture of 50% N,N-dimethylacetamide (Wako Pure Chemical Industries), 30% propylene glycol (Wako Pure Chemical Industries). 4% 2-hydroxypropyl-β-cyclodextrin (Wako Pure Chemical Industries) and 16% distilled water).
as §1, §2

[3] = target: human NK1 receptor (Homo sapiens (Human), UniProt P25103); assay: Affinity for human NK1 receptor (125I-substance P receptor binding test, membrane fraction); conditions: membrane fraction of human NK1 receptor-expressing 293T cells; read-out: IC50 (nM), concentration required for 50% inhibition of 125I-substance P binding
Sequence of human NK1 receptor (P25103 whole entry): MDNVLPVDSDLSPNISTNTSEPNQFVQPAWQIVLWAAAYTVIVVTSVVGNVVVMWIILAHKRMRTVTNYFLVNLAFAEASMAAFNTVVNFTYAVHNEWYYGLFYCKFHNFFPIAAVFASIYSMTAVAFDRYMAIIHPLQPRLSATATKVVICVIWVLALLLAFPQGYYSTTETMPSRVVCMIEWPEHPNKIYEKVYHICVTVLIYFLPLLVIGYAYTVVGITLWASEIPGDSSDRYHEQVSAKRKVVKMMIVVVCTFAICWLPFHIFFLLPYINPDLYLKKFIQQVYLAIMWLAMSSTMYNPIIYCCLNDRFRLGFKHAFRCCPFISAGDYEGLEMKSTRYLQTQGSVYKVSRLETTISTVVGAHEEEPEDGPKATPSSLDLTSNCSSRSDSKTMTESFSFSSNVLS
Experimental: Affinity for Human NK1 Receptor
(3) Measurement of Binding Affinity to Human NK1 Receptor
(3-1) Preparation of Membrane Fraction from Human NK1 Receptor-Expressing Cells
Human NK1 receptor-expressing cells were prepared in a 175 cm^2 culture flask (Nippon Becton Dickinson). The formation of a complex of the human NK1 receptor expression plasmid and Lipofectamine 2000 was performed by calculating the culture area ratio and increasing the scale of the method described in the above 2-4 by the ratio. The human NK1 receptor-expressing cells were collected in a buffer solution for the membrane fraction preparation (50 mM Tris (Wako Pure Chemical), 120 mM sodium chloride (Wako Pure Chemical Industries), 5 mM potassium chloride (Wako Pure Chemical Industries), 1 mM ethylenediaminetetraacetic acid (Sigma), 0.002 mg/mL chymostatin (Peptide Institute), 0.04 mg/bacitracin (Wako Pure Chemical Industries), 0.005 mg/mL phosphoramidon (Peptide Institute) and 0.5 mM phenylmethylsulfonyl fluoride (Wako Pure Chemical Industries), pH7.4) and centrifuged at 1,880 g for 10 minutes, and the cell sediment was suspended in the buffer solution for the membrane fraction preparation. After freezing and thawing the cells once, the cells were homogenized using a Dounce-type homogenizer (cooled on ice, 1000 rpm, 20 times) The homogenized cell suspension was centrifuged at 20,000 rpm for 10 minutes, and the supernatant was removed to obtain cell sediment. The cell sediment was suspended again in the buffer solution for the membrane fraction preparation and homogenized using a Dounce-type homogenizer (cooled on ice, 1000 rpm, 30 times). The cell suspension was centrifuged at 20,000 rpm for 10 minutes, and the supernatant was removed to obtain cell sediment. The same homogenization and centrifugation were repeated again, and final cell sediment was obtained. The final cell sediment was suspended in a buffer solution for the receptor binding test (50 mM Tris (Wako Pure Chemical Industries). 3 mM manganese chloride (Wako Pure Chemical Industries), 0.002 mg/mL chymostatin (Peptide Institute), 0.04 mg/bacitracin (Wako Pure Chemical Industries) and 0.02% bovine serum albumin (Sigma), pH 7.4), and the protein concentration was measured using BCA Protein Assay Kit (Pierce).
(3-2) Receptor Binding Test
The buffer solution for the receptor binding test was dispensed to the wells of a 96-well assay plate (Greiner) at 22.5 μL/well. DMSO solutions of a test compound, which were prepared at an 80-time higher concentration using 100% dimethyl sulfoxide (DMSO), were added to the wells at 2.5 μL/well (final concentrations of 1 nM to 100 nM), and the solutions were mixed. As a radiolabeled ligand, ^125I-substance P (Substance P, [^125I]Tyr^8-, Perkin Elmer) was used. ^125I-substance P was diluted with the buffer solution for the receptor binding test to a concentration resulting in 125 pmol/25 μL/well and added to the 96-well assay plate, and the solutions were mixed. The membrane fraction prepared from the human NK1 receptor-expressing cells was diluted with the buffer solution for the receptor binding test to a concentration resulting in 8 to 10 μg/well, suspended until the suspension became in such a homogenous state that the suspension could flow through a 27G injection needle smoothly and then added to the 96-well assay plate at 150 μL/well. Then, the plate was incubated at room temperature for 60 minutes while shaking the plate. The reaction solutions were suction-filtered through a multiscreen 96-well filter plate (Millipore) which had been pre-treated with 0.3% polyethyleneimine, and the reaction was terminated by washing with a washing solution (50 mM Tris and 0.02% bovine serum albumin, pH 7.4) four times. The bottom of the microplate was dried at 60° C., and then 100 μL/well of MicroScint 20 (PerkinElmer) was dispensed to the wells. The top of the plate was sealed with TopSeal A (PerkinElmer), and the plate was shaken for 5 to 10 minutes. […]

SMILES | Conc. (nM), drug concentration in the brain [1] | Inhibition (%), foot-tapping inhibition rate [2] | IC50 [3]
Cc1cc(F)ccc1-c1cc([C@H]2CC[C@H](C(C)(C)C(=O)O)CC2)ncc1N(C)C(=O)C(C)(C)c1cc(C(F)(F)F)cc(C(F)(F)F)c1 [Example 11, trans-2-{4-[5-{[2-(3,5-Bistrifluoromethylphenyl)-2-methylpropionyl]methylamino}-4-(4-fluoro-2-methylphenyl)pyridin-2-yl]cyclohexyl}-2-methylpropionic Acid] | 72 nM | 95% | 6.75 nM
Cc1ccccc1-c1cc(C2CCC(CC(=O)O)CC2)ncc1N(C)C(=O)C(C)(C)c1cc(C(F)(F)F)cc(C(F)(F)F)c1 (stereo not drawn) [Example 9, {4-[5-{[2-(3,5-Bistrifluoromethylphenyl)-2-methylpropionyl]methylamino}-4-ortho-tolylpyridine-yl]-cyclohexyl}acetic Acid] | 47 nM | 75% | 2.35 nM
Cc1cc(F)ccc1-c1cc(C2CCC(CC(=O)O)CC2)nc(C#N)c1N(C)C(=O)C(C)(C)c1cc(C(F)(F)F)cc(C(F)(F)F)c1 (stereo not drawn) [Example 8, {4-[5-{[2-(3,5-Bistrifluoromethylphenyl)-2-methylpropionyl]methylamino}-6-cyano-4-(4-fluoro-2-methylphenyl)pyridin-2-yl]cyclohexyl}acetic Acid] | 59 nM | 100% | 4.01 nM
Cc1cc(F)ccc1-c1cc(C2CCC(C(=O)O)CC2)ncc1N(C)C(=O)C(C)(C)c1cc(C(F)(F)F)cc(C(F)(F)F)c1 (stereo not drawn) [Example 1, 4-[5-{[2-(3,5-Bistrifluoromethylphenyl)-2-methylpropionyl]methylamino}-4-(4-fluoro-2-methylphenyl)pyridin-2-yl]cyclohexanecarboxylic Acid] | 24 nM | 98% | 1.45 nM
Cc1cc(F)ccc1-c1cc([C@H]2CC[C@H](CC(=O)O)CC2)nc(C#N)c1N(C)C(=O)C(C)(C)c1cc(C(F)(F)F)cc(C(F)(F)F)c1 [Example 20, trans-{4-[5-{[2-(3,5-Bistrifluoromethylphenyl)-2-methylpropionyl]methylamino}-6-cyano--4-(4-fluoro-2-methylphenyl)-pyridin-2-yl]cyclohexyl}acetic acid] | 92 nM | 100% | 3.27 nM
Cc1cc(F)ccc1-c1cc(C2CCC(C(C)C(=O)O)CC2)ncc1N(C)C(=O)C(C)(C)c1cc(C(F)(F)F)cc(C(F)(F)F)c1 (stereo not drawn) [Example 10, 2-{4-[5-{[2-(3,5-Bistrifluoromethylphenyl)-2-methylpropionyl]methylamino}-4-(4-fluoro-2-methylphenyl)pyridin-2-yl]cyclohexyl}propionic Acid] | 42 nM | 97% | 2.79 nM
Cc1ccccc1-c1cc(C2CCC(CC(=O)O)CC2)nc(C#N)c1N(C)C(=O)C(C)(C)c1cc(C(F)(F)F)cc(C(F)(F)F)c1 (stereo not drawn) [Example 16, [4-(5-{[2-(3,5-Bistrifluoromethylphenyl)-2-methylpropionyl]methylamino}-6-cyano-4-ortho-tolylpyridin-2-yl)cyclohexyl]acetic Acid] | 64 nM | 93% | 2.78 nM
Cc1cc(F)ccc1-c1cc(C2CCCC(CC(=O)O)C2)ncc1N(C)C(=O)C(C)(C)c1cc(C(F)(F)F)cc(C(F)(F)F)c1 (stereo not drawn) [Example 3, {3-[5-{[2-(3,5-Bistrifluoromethylphenyl)-2-methylpropionyl]methylamino}-4-(4-fluoro-2-methylphenyl)pyridin-2-yl]cyclohexyl}acetic Acid] | 48 nM | 100% | 2.1 nM
